Measured values from ChEMBL document CHEMBL1131152, “In vitro and in vivo activities of oligodeoxynucleotide-based thrombin inhibitors containing neutral formacetal linkages” (J Med Chem, 1998).

Molecular target: Prothrombin (Homo sapiens) (UniProt P00734)
Experiment: Relative prothrombin time was determined as the activity of the test ODN (oligodeoxynucleotide) relative to that of GS-522

Going from `Cc1cn([C@H]2C[C@H](OP(=O)(O)OC[C@H]3O[C@@H](n4cnc5c(=O)nc(N)[nH]c54)C[C@@H]3OP(=O)(O)OC[C@H]3O[C@@H](n4cnc5c(=O)[nH]c(=N)[nH]c54)C[C@@H]3OP(=O)(O)OC[C@H]3O[C@@H](n4cc(C)c(=O)[nH]c4=O)C[C@@H]3OP(=O)(O)OC[C@H]3O[C@@H](n4cc(C)c(=O)[nH]c4=O)C[C@@H]3OP(=O)(O)OC[C@H]3O[C@@H](n4cnc5c(=O)[nH]c(=N)[nH]c54)C[C@@H]3OP(=O)(O)OC[C@H]3O[C@@H](n4cnc5c(=O)nc(N)[nH]c54)C[C@@H]3O)[C@@H](COCO[C@H]3C[C@H](n4cnc5c(=O)nc(N)[nH]c54)O[C@@H]3COP(=O)(O)O[C@H]3C[C@H](n4cc(C)c(=O)[nH]c4=O)O[C@@H]3COP(=O)(O)O[C@H]3C[C@H](n4cnc5c(=O)[nH]c(=N)[nH]c54)O[C@@H]3COP(=O)(O)O[C@H]3C[C@H](n4cnc5c(=O)nc(N)[nH]c54)O[C@@H]3COP(=O)(O)O[C@H]3C[C@H](n4cc(C)c(=O)[nH]c4=O)O[C@@H]3COP(=O)(O)O[C@H]3C[C@H](n4cc(C)c(=O)[nH]c4=O)O[C@@H]3COP(=O)(O)O[C@H]3C[C@H](n4cnc5c(=O)nc(N)[nH]c54)O[C@@H]3COP(=O)(O)O[C@H]3C[C@H](n4cnc5c(=O)nc(N)[nH]c54)O[C@@H]3COP(=O)(O)O)O2)c(=O)[nH]c1=O` to `Cc1cn([C@H]2C[C@H](OCOC[C@H]3O[C@@H](n4cnc5c(=O)nc(N)[nH]c54)C[C@@H]3OP(=O)(O)OC[C@H]3O[C@@H](n4cc(C)c(=O)[nH]c4=O)C[C@@H]3OP(=O)(O)OC[C@H]3O[C@@H](n4cnc5c(=O)nc(N)[nH]c54)C[C@@H]3OP(=O)(O)OC[C@H]3O[C@@H](n4cnc5c(=O)[nH]c(=N)[nH]c54)C[C@@H]3OP(=O)(O)OC[C@H]3O[C@@H](n4cc(C)c(=O)[nH]c4=O)C[C@@H]3OP(=O)(O)OC[C@H]3O[C@@H](n4cc(C)c(=O)[nH]c4=O)C[C@@H]3OP(=O)(O)OC[C@H]3O[C@@H](n4cnc5c(=O)[nH]c(=N)[nH]c54)C[C@@H]3OP(=O)(O)OC[C@H]3O[C@@H](n4cnc5c(=O)nc(N)[nH]c54)C[C@@H]3O)[C@@H](COP(=O)(O)O[C@H]3C[C@H](n4cnc5c(=O)[nH]c(=N)[nH]c54)O[C@@H]3COP(=O)(O)O[C@H]3C[C@H](n4cnc5c(=O)nc(N)[nH]c54)O[C@@H]3COP(=O)(O)O[C@H]3C[C@H](n4cc(C)c(=O)[nH]c4=O)O[C@@H]3COP(=O)(O)O[C@H]3C[C@H](n4cc(C)c(=O)[nH]c4=O)O[C@@H]3COP(=O)(O)O[C@H]3C[C@H](n4cnc5c(=O)nc(N)[nH]c54)O[C@@H]3COP(=O)(O)O[C@H]3C[C@H](n4cnc5c(=O)nc(N)[nH]c54)O[C@@H]3COP(=O)(O)O)O2)c(=O)[nH]c1=O`, the Relative PT falls from 1.1 to 0.8.

Going from `Cc1cn([C@H]2C[C@H](OP(=O)(O)OC[C@H]3O[C@@H](n4cnc5c(=O)nc(N)[nH]c54)C[C@@H]3OP(=O)(O)OC[C@H]3O[C@@H](n4cnc5c(=O)[nH]c(=N)[nH]c54)C[C@@H]3OP(=O)(O)OC[C@H]3O[C@@H](n4cc(C)c(=O)[nH]c4=O)C[C@@H]3OP(=O)(O)OC[C@H]3O[C@@H](n4cnc5c(=O)nc(N)[nH]c54)C[C@@H]3OP(=O)(O)OC[C@H]3O[C@@H](n4cc(C)c(=O)[nH]c4=O)C[C@@H]3OP(=O)(O)OC[C@H]3O[C@@H](n4cnc5c(=O)nc(N)[nH]c54)C[C@@H]3OCOC[C@H]3O[C@@H](n4cnc5c(=O)[nH]c(=N)[nH]c54)C[C@@H]3OP(=O)(O)OC[C@H]3O[C@@H](n4cc(C)c(=O)[nH]c4=O)C[C@@H]3OP(=O)(O)OC[C@H]3O[C@@H](n4cc(C)c(=O)[nH]c4=O)C[C@@H]3OP(=O)(O)OC[C@H]3O[C@@H](n4cnc5c(=O)[nH]c(=N)[nH]c54)C[C@@H]3OP(=O)(O)OC[C@H]3O[C@@H](n4cnc5c(=O)nc(N)[nH]c54)C[C@@H]3O)[C@@H](COP(=O)(O)O[C@H]3C[C@H](n4cc(C)c(=O)[nH]c4=O)O[C@@H]3COP(=O)(O)O[C@H]3C[C@H](n4cnc5c(=O)nc(N)[nH]c54)O[C@@H]3COCO[C@H]3C[C@H](n4cnc5c(=O)nc(N)[nH]c54)O[C@@H]3COP(=O)(O)O)O2)c(=O)[nH]c1=O` to `Cc1cn([C@H]2C[C@H](OP(=O)(O)OC[C@H]3O[C@@H](n4cnc5c(=O)nc(N)[nH]c54)C[C@@H]3OCOC[C@H]3O[C@@H](n4cnc5c(=O)[nH]c(=N)[nH]c54)C[C@@H]3OP(=O)(O)OC[C@H]3O[C@@H](n4cc(C)c(=O)[nH]c4=O)C[C@@H]3OP(=O)(O)OC[C@H]3O[C@@H](n4cnc5c(=O)[nH]c(=N)[nH]c54)C[C@@H]3OP(=O)(O)OC[C@H]3O[C@@H](n4cc(C)c(=O)[nH]c4=O)C[C@@H]3OP(=O)(O)OC[C@H]3O[C@@H](n4cnc5c(=O)nc(N)[nH]c54)C[C@@H]3OCOC[C@H]3O[C@@H](n4cnc5c(=O)[nH]c(=N)[nH]c54)C[C@@H]3OP(=O)(O)OC[C@H]3O[C@@H](n4cc(C)c(=O)[nH]c4=O)C[C@@H]3OP(=O)(O)OC[C@H]3O[C@@H](n4cc(C)c(=O)[nH]c4=O)C[C@@H]3OP(=O)(O)OC[C@H]3O[C@@H](n4cnc5c(=O)[nH]c(=N)[nH]c54)C[C@@H]3OP(=O)(O)OC[C@H]3O[C@@H](n4cnc5c(=O)nc(N)[nH]c54)C[C@@H]3O)[C@@H](COP(=O)(O)O[C@H]3C[C@H](n4cc(C)c(=O)[nH]c4=O)O[C@@H]3COP(=O)(O)O[C@H]3C[C@H](n4cnc5c(=O)nc(N)[nH]c54)O[C@@H]3COP(=O)(O)O[C@H]3C[C@H](n4cnc5c(=O)[nH]c(=N)[nH]c54)O[C@@H]3COP(=O)(O)O)O2)c(=O)[nH]c1=O`, the Relative PT falls from 0.7 to 0.6.

First: Cc1cn([C@H]2C[C@H](OP(=O)(O)OC[C@H]3O[C@@H](n4cnc5c(=O)nc(N)[nH]c54)C[C@@H]3OCOC[C@H]3O[C@@H](n4cnc5c(=O)[nH]c(=N)[nH]c54)C[C@@H]3OP(=O)(O)OC[C@H]3O[C@@H](n4cc(C)c(=O)[nH]c4=O)C[C@@H]3OP(=O)(O)OC[C@H]3O[C@@H](n4cnc5c(O)nc(=N)[nH]c54)C[C@@H]3OP(=O)(O)OC[C@H]3O[C@@H](n4cc(C)c(=O)[nH]c4=O)C[C@@H]3OP(=O)(O)OC[C@H]3O[C@@H](n4cnc5c(=O)nc(N)[nH]c54)C[C@@H]3OP(=O)(O)OC[C@H]3O[C@@H](n4cnc5c(=O)[nH]c(=N)[nH]c54)C[C@@H]3OP(=O)(O)OC[C@H]3O[C@@H](n4cc(C)c(=O)[nH]c4=O)C[C@@H]3OP(=O)(O)OC[C@H]3O[C@@H](n4cc(C)c(=O)[nH]c4=O)C[C@@H]3OP(=O)(O)OC[C@H]3O[C@@H](n4cnc5c(=O)[nH]c(=N)[nH]c54)C[C@@H]3OP(=O)(O)OC[C@H]3O[C@@H](n4cnc5c(=O)nc(N)[nH]c54)C[C@@H]3O)[C@@H](COP(=O)(O)O[C@H]3C[C@H](n4cc(C)c(=O)[nH]c4=O)O[C@@H]3COP(=O)(O)O[C@H]3C[C@H](n4cnc5c(=O)nc(N)[nH]c54)O[C@@H]3COCO[C@H]3C[C@H](n4cnc5c(=O)[nH]c(=N)[nH]c54)O[C@@H]3COP(=O)(O)O)O2)c(=O)[nH]c1=O
Second: Cc1cn([C@H]2C[C@H](OCOC[C@H]3O[C@@H](n4cnc5c(=O)nc(N)[nH]c54)C[C@@H]3OP(=O)(O)OC[C@H]3O[C@@H](n4cnc5c(=O)[nH]c(=N)[nH]c54)C[C@@H]3OP(=O)(O)OC[C@H]3O[C@@H](n4cc(C)c(=O)[nH]c4=O)C[C@@H]3OP(=O)(O)OC[C@H]3O[C@@H](n4cnc5c(=O)[nH]c(=N)[nH]c54)C[C@@H]3OP(=O)(O)OC[C@H]3O[C@@H](n4cc(C)c(=O)[nH]c4=O)C[C@@H]3OP(=O)(O)OC[C@H]3O[C@@H](n4cnc5c(=O)nc(N)[nH]c54)C[C@@H]3OP(=O)(O)OC[C@H]3O[C@@H](n4cnc5c(=O)[nH]c(=N)[nH]c54)C[C@@H]3OP(=O)(O)OC[C@H]3O[C@@H](n4cc(C)c(=O)[nH]c4=O)C[C@@H]3OP(=O)(O)OC[C@H]3O[C@@H](n4cc(C)c(=O)[nH]c4=O)C[C@@H]3OCOC[C@H]3O[C@@H](n4cnc5c(=O)[nH]c(=N)[nH]c54)C[C@@H]3OP(=O)(O)OC[C@H]3O[C@@H](n4cnc5c(=O)nc(N)[nH]c54)C[C@@H]3O)[C@@H](COP(=O)(O)O[C@H]3C[C@H](n4cc(C)c(=O)[nH]c4=O)O[C@@H]3COP(=O)(O)O[C@H]3C[C@H](n4cnc5c(=O)nc(N)[nH]c54)O[C@@H]3COP(=O)(O)O[C@H]3C[C@H](n4cnc5c(=O)[nH]c(=N)[nH]c54)O[C@@H]3COP(=O)(O)O)O2)c(=O)[nH]c1=O
The Relative PT of the first is higher: 0.6 for the first, 0.3 for the second.

In the case of `Cc1cn([C@H]2C[C@H](OCOC[C@H]3O[C@@H](n4cnc5c(=O)nc(N)[nH]c54)C[C@@H]3OP(=O)(O)OC[C@H]3O[C@@H](n4cnc5c(=O)[nH]c(=N)[nH]c54)C[C@@H]3OP(=O)(O)OC[C@H]3O[C@@H](n4cc(C)c(=O)[nH]c4=O)C[C@@H]3OP(=O)(O)OC[C@H]3O[C@@H](n4cc(C)c(=O)[nH]c4=O)C[C@@H]3O[PH](O)(O)OC[C@H]3O[C@@H](n4cnc5c(=O)[nH]c(=N)[nH]c54)C[C@@H]3OP(=O)(O)OC[C@H]3O[C@@H](n4cnc5c(=O)nc(N)[nH]c54)C[C@@H]3O)[C@@H](COP(=O)(O)O[C@H]3C[C@H](n4cnc5c(=O)[nH]c(=N)[nH]c54)O[C@@H]3COCO[C@H]3C[C@H](n4cc(C)c(=O)[nH]c4=O)O[C@@H]3COP(=O)(O)O[C@H]3C[C@H](n4cnc5c(=O)[nH]c(=N)[nH]c54)O[C@@H]3COP(=O)(O)O[C@H]3C[C@H](n4cnc5c(=O)nc(N)[nH]c54)O[C@@H]3COP(=O)(O)O[C@H]3C[C@H](n4cc(C)c(=O)[nH]c4=O)O[C@@H]3COP(=O)(O)O[C@H]3C[C@H](n4cc(C)c(=O)[nH]c4=O)O[C@@H]3COP(=O)(O)O[C@H]3C[C@H](n4cnc5c(=O)nc(N)[nH]c54)O[C@@H]3COP(=O)(O)O[C@H]3C[C@H](n4cnc5c(=O)nc(N)[nH]c54)O[C@@H]3COP(=O)(O)O)O2)c(=O)[nH]c1=O`, the Relative PT is reported as 0.7.
